These results are taken from US20260248128A1, “INSECT NEUROPEPTIDE ANALOGUES” (Solasta Bio Limited, priority 2021, published 2026).

Where no end group is shown, it is not given here. [ ]: non-standard residue; d: D form. NMeA = CN[C@@H](C)C(=O)O; Ahx = NCCCCCC(=O)O

The subject of assay [1] is M. persicae (peach potato/Green Peach Aphid). Put plainly: IRAC leaf dip assay on adult aphids. The conditions noted are these: for Peptide efficacy compared with endogenous CAPA-3: adult aphids and nymphs, scored 72, 96 and 120 hours. It is filed as in vivo, Myzus persicae. Here is the method: Peptide efficacy (2×10^−4 M) was assessed on M. persicae (peach potato/Green Peach Aphid) using IRAC leaf dip assays on adult aphids. Peptides were administered on leaves either in DDH2O or Amino Acid Mix (Sadeghi et al., 2010) to increase uptake via feeding. Insecticide treatment was with Spirotetramat, 2×10^−4 M
Data are from 120 hours post-treatment, indicating % adult lethality (left panel); and number of nymphs per sample (right panel) for each of SB-P-1 (endogenous CAPA-3, N =26 (H2O); 15 (AA)), SB-P-14 (CAPA-3 analogue, N=5); SB-P-15 (CAPA-3 analogue, N=10). Peptide application rates are 2×10^−4 M. Note that nymph values for spirotetramat are 0.
Data are for 120 hours, indicating % adult lethality (left panel); and number of nymphs per sample (right panel). Individual data points are shown, N=5. Peptide application rates are 2×10^−4 M.

In assay [2] the test system is M. persicae CAPA receptor. Put plainly: activation assay (IP1 assay) for M. persicae CAPA receptor. The conditions noted are these: initial screen, FIG. 7. It counts as cell-based, Myzus persicae.
In a further assay the test system is H. halys CAPA receptor. The conditions noted are these: data in Ahn et al, 2020; cited from earlier work.
A further assay concerns Pyrokinin receptor. Particulars: Brown Marmorated Stinkbug, H. halys; Ahn et al., 2020; cited from earlier work.
Setting [3] is: leaf dip, peptide 2×10^−4 M, 120 hours.

Take `CCOC(=O)OC1=C(c2cc(C)ccc2C)C(=O)N[C@]12CC[C@@H](OC)CC2` [spirotetramat, Spirotetramat, reference compound]: the “number of nymphs per sample” value in assay [1] (120 hours post-treatment, 2×10^−4 M) is on record as 0.
As to “Hy-Ahx-SDSKNT[n-me-A]LWFGPRL-[NH2] ([Ahx]SDSKNT[NMeA]LWFGPRL-NH2; N-terminus assumed; SMILES CC(C)C[C@H](NC(=O)[C@H](CCCNC(=N)N)NC(=O)[C@@H]1CCCN1C(=O)CNC(=O)[C@H](Cc1ccccc1)NC(=O)[C@H](Cc1c[nH]c2ccccc12)NC(=O)[C@H](CC(C)C)NC(=O)[C@H](C)N(C)C(=O)[C@@H](NC(=O)[C@H](CC(N)=O)NC(=O)[C@H](CCCCN)NC(=O)[C@H](CO)NC(=O)[C@H](CC(=O)O)NC(=O)[C@H](CO)NC(=O)CCCCCN)[C@@H](C)O)C(N)=O) [SB-P-14]”, the “Peptide efficacy compared with endogenous CAPA-3” value in assay [1] (leaf dip, peptide 2×10^−4 M) is on record as “did not perform as well as endogenous CAPA-3”.
For H-SDSKNTALWFGPRL-NH2 [SB-P-1], in assay [2], the “activation of M. persicae CAPA receptor” value is given as “do not activate”. The “activation of H. halys CAPA receptor” value with H. halys CAPA receptor is “does not activate”. The “activation of Pyrokinin receptor” value in the assay on Pyrokinin receptor is “activate”.
For the molecule “Hy-SDSKNT[n-me-A]LWFGPRL-[nh2] [SB-P-15]”, in assay [1] (leaf dip, peptide 2×10^−4 M), the “Peptide efficacy compared with endogenous CAPA-3” value is recorded as “an improvement on endogenous CAPA-3 efficacy”. In addition, in assay [1] (setting [3]), the “aphicidal efficacy (adult lethality)” value is reported as “highly effective” and the nymphicidal efficacy entry is on record as “highly effective”. Further, the “activation of M. persicae CAPA receptor” value in assay [2] was “do not activate”.
